Reference: patent US8916604B2, “Compositions and methods for epigenetic modification of nucleic acid sequences” (Rutgers, The State University of New Jersey, priority 2011, dated 2014)

Columns and labels:
[1] = tested on: 5-methylcytosine (5-MC); test: IHC staining of TRAMP prostate tissue, global CpG methylation; format: in vivo, mouse; details: D-G1 and D-G2, p<0.001
Procedure: Sections (4 μm) were cut from the paraffin embedded prostate tissue and mounted on glass slides. The slides Were deparafinized in xylene and antigen unmasking was performed by applying proteinase K digestion directly on the slides for 15 min. Endogenous peroxidase was blocked by incubating in 3% […] for 5 min, and ApopTag Plus Peroxidase In Situ Apoptosis Detection Kit (Millipore, Temecula, Calif., U.S.A.) was used to detect apoptotic cells. For detection of proliferative cells, monoclonal mouse anti-proliferating cell nuclear antigen (PCNA) antibody (Clone PC10, 1:50, Dako North America, Carpinteria, Calif., U.S.A.) was used (12). The staining was performed following as the manufacturer's protocols. Anti-5-methylcytosine (5-MC) mouse monoclone antibody (Clone 162 33 D3, 1:50, EMD Chemicals, Philadelphia, Pa., U.S.A.) was used to detect genome-wide methylated DNA. […] Quantitation of IHC staining was done using the Aperio ScanScope® GL system according to the manufactures protocol (Aperio Technologies Inc., Vista, Calif., U.S.A.). […] The Aperio ImageScopoe software (v 10.1.3.2028) allowed the unbiased quantification and quantitative analysis of the IHC staining of biomarkers of prostate tumor samples obtained from untreated control versus the treated TRAMP mice.

[2] = tested on: NQO1; test: qPCR in TRAMP C1 cells; format: cell-based, mouse; details: 5 days
Procedure: (§1) The DIM used in the study contains approximately 98% of DIM purchased from Sigma-Aldrich t St. Louis, Mo., USA), TRAMP C1 cells (provided by Dr. Barbara Foster, Department of Pharmacology and Therapeutics, Roswell Park Cancer institute, Buffalo. NY), originally derived from TRAMP prostate tumor, were cultured in Dulbecco's Modified Eagle's Medium (Invitrogen Corp., Carlsbad, Calif. U.S.A.) supplemented with 10% (V/V) fetal bovine serum (FBS) (Invitrogen Corp., Grand Island, N.Y., U.S.A.), penicillin 100 U/ml, and streptomycin 100 μg/ml (Invitrogen Corp., Grand Island, N.Y., U.S.A.), Cells were maintained in a humidified incubator with 5% CO2 at 37° C. Cells were seeded in 10 cm plates for 24 h and then treated with 0.1% DMSO (control) or different concentrations of DIM in 1% FBS containing medium for 5 days. The medium was changed every 2 days (20), Total RNA were extracted from DIM treated TRAMP C1 cells and were reversed transcribed. The primers, DNMT1, DNMT3a, DNMT3b, NQO1, HO-1, GSTm1, UGT1a1 and control β-actin of qPCR are listed in Table 5 (Integrated DNA. Technologies, Coralville, Iowa, U.S.A.), The qPCR reactions were carried out with 1 μl cDNA product, 50 nM of each primer, and Power SYBR Green master mix (Applied Biosystems, Foster City, Calif., U.S.A.) in 10 μl reactions. The reactions were performed using an ABI Prism 7900HT sequence detection system; specificity of amplification was verified by first-derivative inciting curve analysis using the ABI software (SDS 2.3, Applied Biosystems, Foster City, Calif., U.S.A.). Relative quantification of gene expression profile was calculated using a ΔΔCt method. (RQ manager, Applied Biosystems, Foster City, C. CA, U.S.A.) as we have performed previously (Barve et al., J Pharm Sci., 2008; 94: 4528-45). Three independent experiments were carried out showing similar results. The results are presented as mean±SD.

[3] = tested on: DNMT3a; test: qPCR in TRAMP C1 cells; format: cell-based, mouse; details: 5 μM, p<0.05
Procedure: as §1

[4] = tested on: first five CpGs of the Nrf2 gene promoter; test: Bisulfite genomic sequencing of TRAMP prostate tissues; format: in vivo, mouse; details: control 98% methylation
Procedure: Genomic DNA was isolated from the control or DIM treated TRAMP C1 cells and TRAMP dorso-lateral prostate tissues collected from control and DIM treated groups pooled and homogenized using the DNeasy tissue kit (Qiagen, Valencia, Calif., U.S.A.). The genomic DNAs were extracted and subjected to bisulfite conversion carried out using 750 ng of genomic DNA and applying to EZ DNA Methylation Gold Kits (Zymo Research Corp., Orange, Calif., U.S.A.) following the manufacturer's instructions. The converted DNA was amplified by PCR utilizing Platinum PCR SuperMix (Invitrogen, Grand Island, N.Y., U.S.A.) with a set of specific primers, forward: 5′-AGTTATGAAGTAGTAGTAAAAA-3′ (SEQ ID NO: 37) and reverse: 5′-AATATAATCTCATAAAACCCCAC-3 (SEQ ID NO: 38), amplifying the first five CpGs located between −1266 and −1086 of the promoter region of Nrf2 with the translation initiation site defined as +1 (14, 20). Gel extraction using Qiaquick™ gel extraction kit (Qiagen, Valencia, Calif., U.S.A.) were used to purify the PCR products, then cloned into pCR4 TOPO vector using a TOPO™ TA Cloning kit (Invitrogen, Grand Island, N.Y., U.S.A.), Plasmids DNA from at least twenty colonies per for treatment were prepared using QIAprep Spin Miniprep Kit (Qiagen, Valencia Calif., U.S.A.) and sequenced (Genwiz, Piscataway, N.J., U.S.A.).

Q: Which “5-MC IHC staining of the prostate tissue” value [1] does the source give for c1ccc2c(Cc3c[nH]c4ccccc34)c[nH]c2c1 [DIM, 3,3′-diindolylmethane] here?
A: The value was “significantly decreased”.

Q: And the “NQO1 mRNA expression” value [2]?
A: Its value is “enhanced”.

Q: And the “DNMT3a mRNA expression” value [3]?
A: Its value is “suppressed”.

Q: What about the “methylation of the first five CpGs of Nrf2 promoter” value ([4]; D-G1) of the same molecule?
A: The value was 37.6%.

Q: And the “methylation of the first five CpGs of Nrf2 promoter” value ([4]; D-G2)?
A: Its value is 54.4%.
